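Cells were grown in 96-well plates and exposed to each compound for 48 hours at five concentrations; endpoints were interpolated linearly between bracketing concentrations, or set to the highest concentration if not reached. The concentration for 50% growth inhibition is given as GI50. TGI marks complete inhibition of growth.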
Key:
Assay in all cases: NCI anticancer screen, dose series, 48 h
COLO 205 colon = test system: COLO 205 colon
K-562 leukemia = test system: K-562 leukemia
MALME-3M melanoma = test system: MALME-3M melanoma
NCI-H226 lung = test system: NCI-H226 lung
OVCAR-4 ovarian = test system: OVCAR-4 ovarian
SF-539 CNS = test system: SF-539 CNS
U251 CNS = test system: U251 CNS
SR leukemia = test system: SR leukemia
CCRF-CEM leukemia = test system: CCRF-CEM leukemia
MOLT-4 leukemia = test system: MOLT-4 leukemia

| Compound | GI50 (COLO 205 colon) [µM] | TGI (COLO 205 colon) [µM] | GI50 (K-562 leukemia) [µM] | TGI (K-562 leukemia) [µM] | GI50 (MALME-3M melanoma) [µM] | TGI (MALME-3M melanoma) [µM] | GI50 (NCI-H226 lung) [µM] | TGI (NCI-H226 lung) [µM] | GI50 (OVCAR-4 ovarian) [µM] | TGI (OVCAR-4 ovarian) [µM] | GI50 (SF-539 CNS) [µM] | TGI (SF-539 CNS) [µM] | GI50 (U251 CNS) [µM] | TGI (U251 CNS) [µM] | TGI (SR leukemia) [µM] | GI50 (SR leukemia) [µM] | TGI (CCRF-CEM leukemia) [µM] | TGI (MOLT-4 leukemia) [µM] | GI50 (CCRF-CEM leukemia) [µM] | GI50 (MOLT-4 leukemia) [µM] |
| --- | --- | --- | --- | --- | --- | --- | --- | --- | --- | --- | --- | --- | --- | --- | --- | --- | --- | --- | --- | --- |
| NS(=O)(=O)c1ccc(NC(=O)c2ccc(NC3=C(Cl)C(=O)N(Cc4ccccc4)C3=O)cc2)cc1 | 15.1 | > 100 | 3.26 | > 100 | 49.4 | > 100 | 2.12 | 5.91 | 13.7 | > 100 | 4.59 | 22 | 5.37 | 24.7 |  |  |  |  |  |  |
| CCC(C)CN1C(=O)NC(C)(Cc2ccccc2)C1=O (configuration not stated) |  | > 100 |  |  |  | > 100 |  | > 100 |  |  |  | > 100 |  | > 100 | > 100 |  |  |  |  |  |
| COc1cc(-c2nn3c(/C=C4/C(=O)Nc5ccccc54)c(-c4ccc(C)cc4)nc3s2)cc(OC)c1OC |  |  |  |  | 0.765 | 4.78 | 22.5 | 59.9 |  |  | 12.9 | 96 | 1.59 | 3.43 | > 100 | 2.35 |  |  |  |  |
| COc1cc2c(cc1O)C=NCC2 |  | > 100 |  | > 100 |  | > 100 |  | > 100 |  | > 100 |  | > 100 |  | > 100 |  |  | > 100 | > 100 |  |  |
| N#Cc1cccc(N2C(=O)c3c(c(-c4ccccc4)c(-c4ccc(Sc5ccc(-c6c(-c7ccccc7)c7c(c(-c8ccccc8)c6-c6ccccc6)C(=O)N(c6cccc(C#N)c6)C7=O)cc5)cc4)c(-c4ccccc4)c3-c3ccccc3)C2=O)c1 |  | > 100 |  | > 100 |  | > 100 |  |  |  | > 100 |  | > 100 |  | 54.2 |  |  | > 100 | > 100 |  |  |
| COc1ccc2c(c1)C(=O)c1c-2n(CCCN)c(=O)c2ccccc12 | < 0.0318 | 0.807 | < 0.01 | 0.187 | 0.031 | 0.352 | 0.0441 | 0.122 | 0.133 | 1.61 | 0.0609 | 0.646 | < 0.0173 | 0.271 |  |  | < 0.0356 | < 0.0243 | < 0.0129 | < 0.01 |
| COC(=O)[C@@H](NC(=O)NC(=O)NC(=O)CI)C(C)C | 1.97 | 4.01 |  |  | 1.63 | 3.64 | 16.2 | 38.4 | 3.19 | 13.7 | 3.92 | 14.8 | 17.3 | 31.1 | 5.64 | 1.76 |  | 7.05 |  | 2.58 |
| C=C(CNC(=O)Nc1ccc(-c2ccccc2)cc1)c1ccc(C(=O)Nc2ccccc2N)cc1 | > 100 | > 100 | 40.6 | > 100 | 53.7 | > 100 | > 100 | > 100 | > 100 | > 100 | > 100 | > 100 | 47.9 | > 100 |  |  | > 100 | > 100 | 7.32 | 30.5 |
| N=C(c1ccccc1)N(c1ccccc1)c1ccccc1 |  | > 100 |  |  |  | 94.6 |  | > 100 |  | > 100 |  | > 100 |  | > 100 | > 100 |  |  |  |  |  |
| C=CCC1OC(C)(C)Oc2ccc(OCOCCOC)cc21 (configuration not stated) |  |  |  | > 100 |  | > 100 |  |  |  | > 100 |  | > 100 |  | > 100 |  |  |  | > 100 |  |  |
| O=C(O)CN(c1ccccc1)S(=O)(=O)c1ccc(NC(=O)c2ccccc2)cc1 |  | > 100 |  | > 100 |  | > 100 |  |  |  | > 100 |  | > 100 |  | > 100 |  |  | > 100 | > 100 |  |  |
| COc1ccc(S(=O)(=O)NC(C)C(=O)O)cc1 (configuration not stated) |  | > 100 |  | > 100 |  | > 100 |  |  |  | > 100 |  | > 100 |  | > 100 |  |  | > 100 | > 100 |  |  |
| Cn1cc(-c2nonc2-c2c[nH]c3ccccc23)c2ccccc21 | 0.465 | 10.5 | 0.223 | > 36.9 | 0.635 | 17.7 | 1.43 | 24.3 | 1.52 | 17 | 0.276 | 1.07 | 0.443 | 18.6 |  |  | 27.9 | 14.8 | 0.396 | 0.499 |
| Cc1[nH]ncc1-c1cc2nc(C3CC4CCN3CC4)[nH]c(=O)c2s1 (configuration not stated) |  |  | 6.54 | > 100 | 6.02 | 74 | 2.82 | > 100 | 9.68 | > 100 | 1.47 | 7.74 | 2.52 | > 100 |  |  | > 100 | > 100 | 2.36 | 5.52 |

Source: PubChem BioAssay (NCI)
